Experimental data reported in US12364429B2, “Compositions and methods for a universal clinical test for olfactory dysfunction” (The Rockefeller University, priority 2017, dated 2025).

System: trigeminal system
Assay: Lateralization task (odorant applied into only one nostril)
Assay type: in vivo, human
Conditions: pure concentration; number of correct tasks out of 20; eucalyptol 4 trials, vanillin 6 trials
Text: SMELL-S and SMELL-R were created with four different mixtures of 30 molecules drawn from a panel of 109 monomolecular, intensity-matched chemicals. These odorants were selected from stimuli utilized in previous psychophysical studies (21, 38). We used only molecules that minimally activated the trigeminal system, because such stimuli can be detected by anosmic subjects (39, 40). A characteristic of trigeminal activation by a molecule is a fresh, cold, burning, eucalyptus, pungent, or tickling sensation. We used a lateralization task in which an odorant is applied into only one nostril to assign a lateralization score to each molecule. It is possible to localize the stimulated nostril if it activates the trigeminal system. In contrast, it is much harder to localize an olfactory stimulus (41). Lateralization tasks were self-administered by one investigator. Two disposable squeeze bottles were placed in a device facilitating simultaneous squeezing and stimuli delivery in each nostril. Only one bottle was filled with an odor stimulus. The tip of each bottle was fitted with a foam piece that conformed to the investigator's nostril, and placed at the entrance of each nostril. The investigator squeezed both bottles simultaneously and attempted to localize which nostril had received the stimulus. After each task, the device was spun on a rotating platform to randomize the odor-stimulus side. […]

Structure (SMILES) | lateralization score (median)
CC12CCC(CC1)C(C)(C)O2 [eucalyptol] | 20
COc1cc(C=O)ccc1O [vanillin] | 6.5
